Measured values: patent EP1377579B1 (Aventis Pharmaceuticals Inc., priority 2000, dated 2002)
Where a name gives a salt, the structure may show the parent alone. Read-outs that look alike come from different tables or passages of the source.

How the values were obtained:
Colo-205 = experiment: In vitro proliferation assay (MTT), Colo-205; type: cell-based; settings: Homo sapiens
Outline: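 After 3 days of compound exposure, MTT was added to Colo-205 cultures for 2–4 h at 37 °C. Formazan was dissolved in DMSO and absorbance read at 570 nm. Cells had been plated at 1000–2500/well and left to recover overnight; IC50 values came from the raw readings.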

Jurkat = experiment: In vitro proliferation assay (MTT), Jurkat; type: cell-based; settings: Homo sapiens, MTT assay, value (SD, n) where given, read-out: Jurkat Leuk. (IC50 µM)
Outline: (§1)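 IC50 values come from live-cell estimates based on MTT reduction measured at 570 nm after 3 days of compound treatment. Cells are seeded at 1000 to 2500 per well in serum-supplemented RPMI 1640. They are stained with MTT for 2 to 4 hr at 37 C and the dye is then taken up in DMSO.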

HL-60 = experiment: In vitro proliferation assay (MTT), HL-60; type: cell-based; settings: Homo sapiens
Outline: as §1

MDA-MB-435 = experiment: In vitro proliferation assay (MTT), MDA-MB-435; type: cell-based, human; settings: Homo sapiens
Outline: (§2)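 Step one: plate 1000 to 2500 cells per well and let them recover overnight. Step two: treat with compound for 3 days. Step three: add MTT, dissolve dye in DMSO, read absorbance at 570 nm and determine IC50.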

NCI-H460 = experiment: In vitro proliferation assay (MTT), NCI-H460; type: cell-based; settings: Homo sapiens
Outline: as §1

PC-3 = experiment: In vitro proliferation assay (MTT), PC-3; type: cell-based, human; settings: Homo sapiens
Outline: as §2

[1] = test system: neuronally differentiated PC12 cells, rat sympathetic neurons; settings: cited from earlier work; for concentration of maximal protection from death: camptothecin-treated PC12 cells or rat sympathetic neurons; for cell death: camptothecin-treated, at day 6
cortical neuronal death = settings: cited from earlier work; for IC50: Park et al. 1997, read-out: IC50, protection against camptothecin-induced cortical neuronal death
cdk2/cyclin E = cdk2/cyclin E (Homo sapiens, UniProt P24941); experiment: Cyclin-dependent kinase assay, cdk2/cyclin E; settings: CDK2 IC50, nM, GST-pRb substrate, 10 µM ATP
cdk1/cyclin B = cdk1/cyclin B (Homo sapiens, UniProt P06493); experiment: Cyclin-dependent kinase assay, cdk1/cyclin B; settings: CDK1 IC50, nM, Histone H1, 10 µM ATP
Sequence of cdk1/cyclin B (P06493 whole entry): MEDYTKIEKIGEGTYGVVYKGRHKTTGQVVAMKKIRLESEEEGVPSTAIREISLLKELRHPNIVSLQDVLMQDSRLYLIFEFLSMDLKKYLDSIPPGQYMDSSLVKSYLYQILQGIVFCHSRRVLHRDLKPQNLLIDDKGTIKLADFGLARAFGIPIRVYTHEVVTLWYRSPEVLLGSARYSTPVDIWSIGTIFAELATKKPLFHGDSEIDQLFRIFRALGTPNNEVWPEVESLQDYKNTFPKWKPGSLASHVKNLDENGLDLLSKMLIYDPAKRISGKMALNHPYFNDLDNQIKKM
Sequence of cdk1/cyclin B (P14635 whole entry partner): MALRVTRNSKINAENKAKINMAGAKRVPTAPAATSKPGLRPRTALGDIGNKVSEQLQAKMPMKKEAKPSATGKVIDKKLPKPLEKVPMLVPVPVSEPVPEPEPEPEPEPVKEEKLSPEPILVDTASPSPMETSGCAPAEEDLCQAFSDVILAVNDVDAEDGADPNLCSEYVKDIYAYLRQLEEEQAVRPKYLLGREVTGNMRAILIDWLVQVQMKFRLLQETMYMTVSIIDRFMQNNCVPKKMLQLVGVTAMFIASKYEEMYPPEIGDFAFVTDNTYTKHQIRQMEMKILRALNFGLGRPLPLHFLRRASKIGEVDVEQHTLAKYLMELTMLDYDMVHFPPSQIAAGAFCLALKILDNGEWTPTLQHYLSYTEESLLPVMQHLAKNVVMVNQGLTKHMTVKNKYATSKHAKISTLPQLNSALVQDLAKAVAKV

[2] = test system: PC-3 Human Prostate Tumors; experiment: PC-3 human prostate tumor xenograft in nude mice; type: in vivo; set-up: unit not given here; settings: Table 5
Description: (§3) Antitumor efficacy is assessed using two subcutaneous human tumor xenograft models. The studies are performed using conventional assay techniques. Briefly, HL-60 (leukemia, 5 x10^5 cells) and PC-3 (prostate, 5 x 10^6 cells) tumor cells are injected subcuateously into nude mice (Crl-CD1-Br-nu, Charles River Laboratory, Wilmington, MA). Dosing with compounds began when tumors reached 50 to 100 mm^3. The dose route/schedule for the test compounds is ip/qld (5x/wk). The test doses are set based on the maximum tolerated dose (MTD). […] The test doses for the efficacy studies are set at 1/3rd the MTD (low dose) and the MTD (high dose). The results are shown in Tables 4 and 5 (HL-60, leukemia) (PC-3, prostate cancer). The length of the treatment phase is dependent on the tumor growth rate for the two models. This treatment phase is typically about 3 weeks for the HL-60 model and about 5 weeks for the PC-3 model. […] Dosing with flavopiridol is for the same time frame as for the experimental compounds in both xenograft models. Tumor volume (twice weekly) and body weights (once weekly) are monitored throughout the course of the treatment phase of the experiment. Tumor sizes are measured by external caliper measurements of protruding tumor. Volumes are calculated using the following formula: volume =½ (a x b2), where b is the smaller of two perpendicular diameters.

HL-60 Human Leukemia = experiment: HL-60 human leukemia xenograft in nude mice; type: in vivo; settings: Table 5
Description: as §3

cdk4/cyclin D1 = cdk4/cyclin D1 (Homo sapiens, UniProt P11802); experiment: Cyclin-dependent kinase assay, cdk4/cyclin D1; type: biochemical; settings: cyclin D1/cdk4; GST-pRb substrate, 10 µM ATP
Sequence of cdk4/cyclin D1 (P11802 whole entry): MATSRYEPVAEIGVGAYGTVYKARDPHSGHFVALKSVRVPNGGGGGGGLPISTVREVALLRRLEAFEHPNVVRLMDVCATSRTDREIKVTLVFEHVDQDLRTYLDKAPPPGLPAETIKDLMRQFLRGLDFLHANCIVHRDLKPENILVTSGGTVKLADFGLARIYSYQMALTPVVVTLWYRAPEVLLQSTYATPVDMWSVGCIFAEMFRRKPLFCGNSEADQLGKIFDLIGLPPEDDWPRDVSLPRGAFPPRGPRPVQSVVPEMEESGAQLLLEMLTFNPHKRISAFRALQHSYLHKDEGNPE
Sequence of cdk4/cyclin D1 (P24385 whole entry partner): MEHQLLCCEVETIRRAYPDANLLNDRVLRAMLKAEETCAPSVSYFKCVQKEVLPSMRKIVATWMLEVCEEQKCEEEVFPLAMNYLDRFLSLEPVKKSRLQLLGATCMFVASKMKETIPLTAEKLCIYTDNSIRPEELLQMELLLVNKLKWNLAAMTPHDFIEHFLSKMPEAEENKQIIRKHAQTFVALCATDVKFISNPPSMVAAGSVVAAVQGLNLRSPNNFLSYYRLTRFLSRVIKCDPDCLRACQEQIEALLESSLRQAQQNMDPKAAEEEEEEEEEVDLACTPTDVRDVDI

[3] = Bioavailability experiment in mice given single intravenous cassette doses; settings: for Cls: mice plasma, single intravenous cassette dose
Description: (§7) Male mice are given single intravenous cassette doses of CDK inhibitor compounds.
(§8) Doses are adjusted for the weight of the individual dihydrochloride and trihydrochloride salts. The compounds are stored desiccated within a closed cabinet at room temperature before use. Dose levels are prepared on the morning of each study.
(§9) A single intravenous cassette dose (18 or 15 mg/kg free base) is administered. For each compound, this is equivalent to a dose of approx. 3 mg/kg free base. […] The dose is administered at a volume of 10 ml/kg (total volume of approximately 0.25 ml/animal).
(§10) Male mice (Hsd:ICR (CD-1® SD®), Harlan), each weighing approximately 20 - 30 g at the start of the study. […] Water is available ad libitum throughout the study.
(§11) Dose Administration and Sample Collection: • A single cassette dose of 5-6 compounds is administered by bolus injection into the tail vein over a 10 - 15-second period. […] Whole blood (approximately 0.6 ml/sample) is obtained by cardiac puncture and transferred to 3 ml glass tubes containing 45 U sodium heparin.
(§12) Sample Processing: Plasma: Whole blood is centrifuged at approximately 3,200 rpm for 10 min at approximately 5°C and the plasma (approx. 0.3 ml/sample) is transferred to chilled plastic vials and stored at approx. -70°C until bioanalysis.
(§13) Sample Analysis: Concentrations of each test article in plasma are quantitated by a non-validated method based on LC/MS using the following protocol.
(§14) Samples are removed from the freezer, allowed to thaw at room temperature, and vortexed to insure complete homogenization prior to sample manipulation. Samples are then prepared according to the following scheme: • 1. transfer 48 µL of plasma (blank mouse sample) into a 12 x 75 mm test tube. • 2. add 12 µL of working standard to the blank plasma for standard curve preparation. • 3. […] Inject 25 µL on LC/MS.
(§15) Data Analysis: Concentrations of Compounds in plasma of individual animals are determined by bioanalytics. […] Statistical analyses are limited to simple expressions of variation (mean and standard deviation). The plasma AUC (area-under-curve) is determined by the linear trapezoidal rule. […] All PK parameters are determined by noncompartmental methods using WinNonlin version 3.0 (Pharsight Corp). Plasma vs. time profiles are prepared by Sigma Plot (SPSS, Inc.).

[4] = Red blood cell binding, human whole blood; type: in vitro ADME; settings: 30 minutes at 37°C, 500 ng/ml
Description: (§4) Compounds, including one positive control, are assessed for red blood cell (RBC) uptake, using a modified procedure based on the protocol reported in Sun, J.X.S., et al. High-performance liquid chromatographic analysis, plasma protein binding and red blood cell partitioning of phenprobamate. Biopharmaceutics and Drug Disposition, 8 (1987) 341-351.
(§5) Briefly, RBC uptake is evaluated by comparison of the levels in spiked plasma (n=3) and plasma isolated from spiked whole blood (n=3). Compounds are incubated with human and mouse whole blood, respectively, for 30 minutes at 37°C using a nominal concentration of 500 ng/ml. Following centrifugation, the plasma is removed and submitted for analysis. Each compound is also spiked into blank plasma at a nominal concentration of 500 ng/ml, and submitted for analysis. Levels in the two plasma samples (Cp' and Cp in the equation below) and the blood hematocrit are used to determine the red blood cell to plasma ratio (Crbc/Cp). (Crbc)/(Cp) = (Cpʹ)/(Cp•H)-((1-H))/(H) [formula] In equation 1, Cp' is the level of drug in the spiked "blank" plasma, Cp is the level of drug in the plasma of spiked whole blood, and H is the hematocrit. The hematocrit values are determined as 0.4 for human whole blood and 0.41 for mouse whole blood. The samples are analyzed with ESI LC/MS, using positive ion detection with an internal standard.
(§6) The red blood cell to plasma ratio is determined for each compound using equation 1. Tables 6 and 7 summarize the respective mean Crbc/Cp values and standard deviations for mouse and human whole blood, respectively, in descending order based on the red blood cell to plasma ratio, where"*" denotes Positive Control, and "ND" denotes Not Determined. MDL 108552 is included as a positive control for red blood cell uptake. Table 6. Red Blood Cell to Plasma Ratio for compounds in mouse whole blood

in vivo = settings: male, Hsd:ICR (CD-1), mouse, plasma
Description: as §7, §8, §9, §10, §11, §12, §13, §14, §15

[5] = Red blood cell binding, mouse whole blood; type: in vitro ADME; settings: 30 minutes at 37°C, 500 ng/ml
Description: as §4, §5, §6

[6] = HL-60, MTT assay, value (SD, n) where given, read-out: HL-60 Leuk. (IC50 µM)
[7] = MDA-MB-435, MTT assay, value (SD, n) where given, read-out: MB-435 Breast (IC50 µM)
[8] = PC-3, MTT assay, value (SD, n) where given, read-out: PC-3 Prostate (IC50 µM)
[9] = COLO 205, read-out: Colo-205 Colon (IC50 µM)
[10] = MDA-MB-435, read-out: MB-435 Breast (IC50 µM)
[11] = NCI-H460, read-out: H-460 Lung (IC50 µM)
[12] = PC-3, read-out: PC-3 Prostate (IC50 µM)
[13] = camptothecin-treated neuronal cells

SMILES | IC50 (Jurkat) | IC50 (HL-60; [6]) | IC50 (MDA-MB-435; [7]) | IC50 (PC-3; [8]) | concentration of maximal protection from death [1] | cell death [1] | IC50 (cortical neuronal death) | IC50 (cdk2/cyclin E) | IC50 (cdk1/cyclin B) | PC-3 Mean Vol. ± SD ([2]; dose 1 mg/kg ip) | PC-3 Mean Vol. ± SD ([2]; dose 3 mg/kg ip) | HL60 Mean Vol. ± SD (HL-60 Human Leukemia; dose 1 mg/kg ip) | HL60 Mean Vol. ± SD (HL-60 Human Leukemia; dose 3 mg/kg ip) | IC50 (cdk4/cyclin D1) | IC50 (Colo-205; [9]) | IC50 (MDA-MB-435; [10]) | IC50 (NCI-H460; [11]) | IC50 (PC-3; [12]) | Mean Red Blood Cell to Plasma Ratio [4] | AUC(0-inf) (in vivo; iv, 3 mg/kg) | further results
CN1CC[C@H](c2c(O)cc(O)c3c(=O)cc(-c4ccccc4Cl)oc23)[C@H](O)C1 [Flavopiridol, flavopiridol, reference compound] | 0.08 µM | 0.02 µM | 0.09 µM | 0.08 µM | 1 µM | approximately 30% | 100 nM |  |  |  |  |  |  |  |  |  |  |  |  |  | IC50 (Colo-205; COLO 205, MTT assay, value (SD, n) where given, read-out: Colo-205 Colon (IC50 µM)): 0.03 µM; IC50 (NCI-H460; NCI-H460, MTT assay, value (SD, n) where given, read-out: H-460 Lung (IC50 µM)): 0.07 µM
Cn1cnc2c(NCc3ccccc3)nc(NCCO)nc21 [Olomoucine, 6-(benzylamino)-2-[(2-hydroxyethyl)amino]-9-methylpurine] |  |  |  |  | 200 µM | approximately 30% | 100000 nM |  |  |  |  |  |  |  |  |  |  |  |  |  | 
N[C@H]1CC[C@H](Nc2nc(NC3CCN(C(=O)c4cccc(C(F)(F)F)c4)CC3)c3ncn(C4CCCC4)c3n2)CC1 [compound 3, dihydrochloride] | 0.22 µM | 0.13 µM | 0.25 µM | 0.66 µM |  |  |  | 48 nM | 55 nM | 671 ± 672 | 785 ± 473 | 6370 ± 4655 | 6092 ± 4278 | 1120 nM |  |  |  |  |  |  | 
Cc1ccc(OC(=O)N2CCC(Nc3nc(N[C@H]4CC[C@H](N)CC4)nc4c3ncn4C3CCCC3)CC2)cc1.Cl.Cl [compound 82, trans-4-[2-(4-Amino-cyclohexylamino)-9-cyclopentyl-9H-purin-6-ylamino]-piperidine-1-carboxylic acid p-tolyl ester dihydrochloride] |  |  |  |  |  |  |  | 45 nM | 31 nM | 810 ± 600 | 967 ± 407 | 5164 ± 55516 | 2841 ± 1845 | 131 nM | 0.06 µM | 0.06 µM | 0.08 µM | 0.12 µM | 5.8 | 944 ng·h/mL | IC50 (HL-60; HL-60, read-out: HL-60 Leuk. (IC50 µM)): 0.04 µM; Cls ([3]; 3 mg/kg/compound (15 mg/kg Total Dose), Cassette #4): 53.0 mL/min/kg; Conc. in plasma ([3]; mice, single 15 mg/kg intravenous cassette dose (3 mg/kg/compound), Cassette #4, 24 h, BLQ = below assay quantification limit (approximately 1 ng/ml)): BLQ; concentration at 0.083 h (in vivo; intravenous, 3 mg/kg): 1460 ± 77.4 ng/mL; concentration at 0.25 h (in vivo; intravenous, 3 mg/kg): 875 ± 96.7 ng/mL; concentration at 0.5 h (in vivo; intravenous, 3 mg/kg): 370 ± 40 ng/mL; concentration at 1 h (in vivo; intravenous, 3 mg/kg): 134 ± 16.3 ng/mL; concentration at 3 h (in vivo; intravenous, 3 mg/kg): 37.5 ± 10.7 ng/mL; concentration at 6 h (in vivo; intravenous, 3 mg/kg): 14.5 ± 3.4 ng/mL; concentration at 8 h (in vivo; intravenous, 3 mg/kg): 12.3 ± 2.2 ng/mL; Cmax (in vivo; iv, 3 mg/kg): 1460 ng/mL; half-life (in vivo; iv, 3 mg/kg): 3 h
Cl.Cl.N[C@H]1CC[C@H](Nc2nc(NC3CCN(C(=O)Oc4ccccc4)CC3)c3ncn(C4CCCC4)c3n2)CC1 [compound 85, trans-4-[2-(4-Amino-cyclohexylamino)-9-cyclopentyl-9H-purin-6-ylamino]-piperidine-1-carboxylic acid phenyl ester dihydrochloride] |  |  |  |  |  |  |  | 8 nM | 26 nM | 912 ± 755 | 1208 ± 1247 | 3590 ± 2674 | 5215 ± 4068 | 65 nM | 0.03 µM | 0.03 µM | 0.06 µM | 0.06 µM | 7.1 | 467 ng·h/mL | Conc. (ng/ml) in plasma ([3]; Cassette #1, single 18 mg/kg intravenous cassette dose, mice, 24 h, BLQ = below assay quantification limit): BLQ; Cls ([3]; 3 mg/kg/compound (18 mg/kg Total Dose), Cassette #1): 107.1 mL/min/kg; Mean Red Blood Cell to Plasma Ratio [5]: 6.1; Cmax (in vivo; iv, 3 mg/kg): 843 ng/mL; half-life (in vivo; iv, 3 mg/kg): 2.3 h; concentration at 0.083 h (in vivo; iv, 18 mg/kg): 843 ± 124 ng/mL; concentration at 0.25 h (in vivo; iv, 18 mg/kg): 342 ± 45.1 ng/mL; concentration at 0.5 h (in vivo; iv, 18 mg/kg): 164 ± 15.7 ng/mL; concentration at 1 h (in vivo; iv, 18 mg/kg): 89 ± 21.5 ng/mL; concentration at 3 h (in vivo; iv, 18 mg/kg): 14.3 ± 7.1 ng/mL; concentration at 6 h (in vivo; iv, 18 mg/kg): 5.2 ± 1.9 ng/mL; concentration at 8 h (in vivo; iv, 18 mg/kg): 3.2 ± 0.8 ng/mL
Cn1cnc2nc(NCCO)nc(NCc3ccccc3)c21 [iso-olomoucine] |  |  |  |  |  |  |  |  |  |  |  |  |  |  |  |  |  |  |  |  | prevention of cell death [1, 13]: failed to prevent the cell death; prevention of cell death (cortical neuronal death; [13]): failed to prevent the cell death
